Data published in ChEMBL document CHEMBL1629601, “In vitro susceptibility of field isolates of Leishmania donovani to Miltefosine and amphotericin B: correlation with sodium antimony gluconate susceptibility and implications for treatment in areas of endemicity” (2009).

Assays:
Assay type in all cases: functional
Leishmania donovani [1] = experiment: Antimicrobial activity against Leishmania donovani K192 amastigote
Leishmania donovani [2] = experiment: Antimicrobial activity against Leishmania donovani K135 amastigote
Leishmania donovani [3] = experiment: Antimicrobial activity against Leishmania donovani K131 amastigote
Leishmania donovani [4] = experiment: Antimicrobial activity against Leishmania donovani K59 amastigote
Leishmania donovani [5] = experiment: Antimicrobial activity against Leishmania donovani K216 amastigote
Leishmania donovani [6] = experiment: Antimicrobial activity against Leishmania donovani LdAG83 amastigote
Leishmania donovani [7] = experiment: Antimicrobial activity against Leishmania donovani K251 amastigote
Leishmania donovani [8] = experiment: Antimicrobial activity against Leishmania donovani K435 amastigote
Leishmania donovani [9] = experiment: Antimicrobial activity against Leishmania donovani K133 amastigote
Leishmania donovani [10] = experiment: Antimicrobial activity against Leishmania donovani K516 amastigote
Leishmania donovani [11] = experiment: Antimicrobial activity against Leishmania donovani K429 amastigote
Leishmania donovani [12] = experiment: Antimicrobial activity against Leishmania donovani K481 amastigote
Leishmania donovani [13] = experiment: Antimicrobial activity against Leishmania donovani K111 amastigote
Leishmania donovani [14] = experiment: Antimicrobial activity against Leishmania donovani K509 amastigote
Leishmania donovani [15] = experiment: Antimicrobial activity against Leishmania donovani K80 amastigote
Leishmania donovani [16] = experiment: Antimicrobial activity against Leishmania donovani K439 amastigote
Leishmania donovani [17] = experiment: Antimicrobial activity against Leishmania donovani K149 amastigote
Leishmania donovani [18] = experiment: Antimicrobial activity against Leishmania donovani K417 amastigote
Leishmania donovani [19] = experiment: Antimicrobial activity against Leishmania donovani K498 amastigote
Leishmania donovani [20] = experiment: Antimicrobial activity against Leishmania donovani K132 amastigote

## D-gluconic acid 2,4:2',4'-O-[oxybis(oxidostibylidyne)]bis-trisodium salt nonahydrate
Leishmania donovani [1]
  ED50: 20.3 µg/mL
Leishmania donovani [2]
  ED50: 4.22 µg/mL
Leishmania donovani [3]
  ED50: 19.4 µg/mL
Leishmania donovani [4]
  ED50: 14.7 µg/mL
Leishmania donovani [5]
  ED50: 2.14 µg/mL
Leishmania donovani [6]
  ED50: 2.06 µg/mL
Leishmania donovani [7]
  ED50: 11.8 µg/mL
Leishmania donovani [8]
  ED50: 11.8 µg/mL
Leishmania donovani [9]
  ED50: 3.45 µg/mL
Leishmania donovani [10]
  ED50: 16.5 µg/mL
Leishmania donovani [11]
  ED50: 13.8 µg/mL
Leishmania donovani [12]
  ED50: 17.5 µg/mL
Leishmania donovani [13]
  ED50: 5.63 µg/mL
Leishmania donovani [14]
  ED50: 16.8 µg/mL
Leishmania donovani [15]
  ED50: 10.4 µg/mL
Leishmania donovani [16]
  ED50: 12.9 µg/mL
Leishmania donovani [17]
  ED50: 15.7 µg/mL
Leishmania donovani [18]
  ED50: 14.7 µg/mL
Leishmania donovani [19]
  ED50: 15.8 µg/mL
Leishmania donovani [20]
  ED50: 3.95 µg/mL
